{
  "source": "patent US20150305333A1",
  "about": "“USE OF GLUCOSAMINE AMIDES AS PLANT GROWTH AND YIELD ENHANCERS” (PIONEER HI-BRED INTERNATIONAL, INC., priority 2012, published 2015)",
  "key": {"[1]": {"system": "Shepody potatoes (Solanum tuberosum)", "assay": "Potato field trial 2010: emergence, flowering, marketable yield", "assay_type": "in vivo", "details": "for Marketable Potato Yield for One Row of Plot: one 8 m row, fresh weight", "description": "A potato field trial was conducted to evaluate the effects of NPG on plant emergence, flowering and yield in Shepody potatoes (Solanum tuberosum) planted near Thorndale, Ontario, Canada, in 2010. Seed treatments included an Untreated Control, three concentrations of NPG and three concentrations of an LCO derived from Bradyrhizobium japonicum to serve as a positive control. The LCO was provided by Dr. Don Smith (McGill University, Montreal, Canada) using the basic method described in Soulemanov, A., et al., in Microbiol. Res., 157: 25-28 (2005). Aqueous solutions of NPG and LCO were applied at 10^−6M, 10^−7M and 10^−8M to seed pieces using a spray nozzle and left to soak on a plastic sheet for 20 minutes. The seed pieces were beginning to sprout when planted on June 8th in a loam composed of 41% sand, 39% silt and 20% clay and 4.5% organic matter.\nPotatoes were planted at a rate of 33,300 seed pieces/ha to a depth of 20 cm and hilled using a tractor mounted potato hiller. Weeds were controlled using three L/ha of 40.6 wt % linuron. Insects were controlled using 250 ml/ha 18.4 wt % chlorantraniprole, and disease was controlled using a tank mix of 1.6 kg/ha 75 wt % mancozeb and 225 g/ha 60 wt % cymoxanil fungicides. Before harvest, plants were sprayed twice (seven days apart) with 39.5 wt % diquat dibromide herbicide at a rate of 2 L/ha. All of the products used are industry standards and representative of what is used in commercial production.\nThe trial was conducted using a randomized complete block design with a plot size of 2 m by 8 m with a 100 cm row spacing, 30 cm plant spacing and four replications Due to wet weather, the soil was damp and cloddy during the planting and hilling process.\nMarketable potato yield was determined by harvesting one entire 8 m row of the plot (Table 3). The Untreated Control row with the highest emergence was harvested. Yields were not corrected for differences in emergence rates. The 10^−6 M and 10^−7 M NPG treatments and the 10^−8 M LCO treatment provided a statistically significant increase in marketable fresh weight yield compared to the Untreated Control."}, "canola seeds": {"system": "canola seeds", "assay": "Petri dish seed germination assay, canola", "assay_type": "in vivo", "details": "Salt Stress (100 mM NaCl)", "description": "A series of Petri dish seed assays was conducted to evaluate the effects NPG on the seed germination rates of corn, soybean, and canola seeds subjected to cold stress, salt stress and non-stressed conditions (salt stress only for canola). Assays were performed with ten replications of ten seeds/plate (100 total seeds). NPG was applied to seeds at the specified concentrations prior to being placed in Petri plates. Seeds designated for Salt Stress Experiments 1 & 2 were placed in Petri dishes containing a 100 mM NaCl solution and incubated at 21° C.-22° C. in the dark. Cold stress Petri dishes were incubated at 15° C. in the dark. Untreated Controls were incubated at 21° C.-22° C. in the dark as were seeds utilized in the separately conducted non-stressed germination assays. Data was recorded as percent germination at designated times after plating. Statistical analyses were performed using one-way Anova and Kruskal-Wallis one-way analysis of variance on rank combined with Dunn's all pairwise multiple comparison procedure (α=0.05)."}},
  "data": [
    {"smiles": "CCCCCCC=CCCCCCCCC(=O)NC1C(OC)OC(CO)C(O)C1O", "note": "[NPG, Methyl 2-deoxy-2-N-(hexadece-9,10-cis-eneoyl)-β-D-glucopyranoside]", "values": [
      {"measurement": "Potato Emergence", "setting": "[1]; 10^−6M seed piece treatment, 15 DAP", "result": 16, "unit": "b %"},
      {"measurement": "Potato Emergence", "setting": "[1]; 10^−6M seed piece treatment, 17 DAP", "result": 41, "unit": "b %"},
      {"measurement": "Potato Emergence", "setting": "[1]; 10^−6M seed piece treatment, 21 DAP", "result": 68, "unit": "c %"},
      {"measurement": "Potato Emergence", "setting": "[1]; 10^−6M seed piece treatment, 29 DAP", "result": 72, "unit": "c %"},
      {"measurement": "Potato Flowering", "setting": "[1]; 10^−6M seed piece treatment, 42 DAP", "result": 19, "unit": "a %"},
      {"measurement": "Potato Flowering", "setting": "[1]; 10^−6M seed piece treatment, 50 DAP", "result": 53, "unit": "ab %"},
      {"measurement": "Marketable Potato Yield for One Row of Plot", "setting": "[1]; 10^−6M seed piece treatment", "result": 17.92, "unit": "b Kg/Plot"},
      {"measurement": "Potato Emergence", "setting": "[1]; 10^−7M seed piece treatment, 15 DAP", "result": 9, "unit": "ab %"},
      {"measurement": "Potato Emergence", "setting": "[1]; 10^−7M seed piece treatment, 17 DAP", "result": 30, "unit": "ab %"},
      {"measurement": "Potato Emergence", "setting": "[1]; 10^−7M seed piece treatment, 21 DAP", "result": 48, "unit": "b %"},
      {"measurement": "Potato Emergence", "setting": "[1]; 10^−7M seed piece treatment, 29 DAP", "result": 52, "unit": "b %"},
      {"measurement": "Potato Flowering", "setting": "[1]; 10^−7M seed piece treatment, 42 DAP", "result": 20, "unit": "a %"},
      {"measurement": "Potato Flowering", "setting": "[1]; 10^−7M seed piece treatment, 50 DAP", "result": 47, "unit": "ab %"},
      {"measurement": "Marketable Potato Yield for One Row of Plot", "setting": "[1]; 10^−7M seed piece treatment", "result": 16.05, "unit": "b Kg/Plot"},
      {"measurement": "Potato Emergence", "setting": "[1]; 10^−8M seed piece treatment, 15 DAP", "result": 13, "unit": "ab %"},
      {"measurement": "Potato Emergence", "setting": "[1]; 10^−8M seed piece treatment, 17 DAP", "result": 30, "unit": "ab %"},
      {"measurement": "Potato Emergence", "setting": "[1]; 10^−8M seed piece treatment, 21 DAP", "result": 45, "unit": "b %"},
      {"measurement": "Potato Emergence", "setting": "[1]; 10^−8M seed piece treatment, 29 DAP", "result": 55, "unit": "b %"},
      {"measurement": "Potato Flowering", "setting": "[1]; 10^−8M seed piece treatment, 42 DAP", "result": 11, "unit": "a %"},
      {"measurement": "Potato Flowering", "setting": "[1]; 10^−8M seed piece treatment, 50 DAP", "result": 54, "unit": "ab %"},
      {"measurement": "Marketable Potato Yield for One Row of Plot", "setting": "[1]; 10^−8M seed piece treatment", "result": 13.80, "unit": "ab Kg/Plot"},
      {"measurement": "Canola Seed Germination", "setting": "canola seeds; 10^−6M, 30 HAP", "result": 14, "unit": "b %"},
      {"measurement": "Canola Seed Germination", "setting": "canola seeds; 10^−6M, 39 HAP", "result": 67.3, "unit": "ab %"},
      {"measurement": "Canola Seed Germination", "setting": "canola seeds; 10^−6M, 48 HAP", "result": 84, "unit": "a %"},
      {"measurement": "Canola Seed Germination", "setting": "canola seeds; 10^−7M, 30 HAP", "result": 22.7, "unit": "ab %"},
      {"measurement": "Canola Seed Germination", "setting": "canola seeds; 10^−7M, 39 HAP", "result": 80.7, "unit": "a %"},
      {"measurement": "Canola Seed Germination", "setting": "canola seeds; 10^−7M, 48 HAP", "result": 88.7, "unit": "a %"}
    ]}
  ]
}
